Where a name gives a salt, the structure may show the parent alone.
Test system: rat liver microsome lipid peroxidation
Test: Antioxidation action test in rat liver microsome (microsome lipid peroxidation measuring system, TBARS generation)
Type: biochemical
Conditions: for antioxidation action: microsome lipid peroxidation measuring system using a rat liver microsome, result in words; for IC50: rat liver microsome, NADPH 500 μM + ferrous sulfate 50 μM, 20 minutes reaction, 37° C., n=2, nonlinear regression, read-out: IC50 (TBARS generation suppressing action)
Method: 1. Antioxidation Action Test in Rat Liver Microsome
Using a microsome lipid peroxidation measuring system, an antioxidation action of a test compound was evaluated. This test quantifies a thiobarbituric acid reaction substance (TBARS) that is generated by a lipid peroxidation reaction caused by adding nicotinamide adenine dinucleotide phosphoric acid and ferrous sulfate to a microsome. To this system, a test compound is added, and a TBARS generation suppressing action by the test compound is evaluated as an antioxidation action. This method is a general method for measuring an antioxidation action of a compound or the like (Reference document: Yakugaku Zasshi 119, 93-99 (1999), Biochimica et Biophysics Acta, 1046, (1990) 207-213, Chemistry & Biology Experiment line 2, lipid peroxidation experimental method (Hirokawa shoten)).
A buffer solution was prepared by mingling to achieve 25 mM tris(hydroxymethyl)aminomethane (Tris) (pH 7.4) and 150 mM potassium chloride (KCl).
Ferrous sulfate (FeSO4.7H2O) was dissolved in distilled water to prepare a 5 mM solution.
Nicotinamide adenine dinucleotide phosphoric acid (NADPH) was dissolved in distilled water to prepare a 50 mM solution.
Ethylenediaminetetraacetic acid (EDTA) was dissolved in distilled water to prepare a 200 mM solution.
Five μL of a commercially available rat liver microsome [XENOTECH, catalog No. R1000 (20 mg protein/mL)] was used.
As a test compound, Compound A which is an inventive compound [1-[6-(4-cyclopropyl-1H-indazol-5-yl)pyridin-3-yl]-1-ethylenepropylamine hydrochloride (Example compound 2)], and Compound B having a similar compound structure [1-[6-(4-cyclopropyl-1H-indazol-5-yl)pyridin-3-yl]-1-methyl ethyl amine hydrochloride (synthesized according to a method described in European Patent Publication No. 1679308)] were used. Ten mM test compound solutions were prepared by dissolving 1.3 mg of Compound A in 0.315 mL of dimethyl sulfoxide (DMSO), and dissolving 2.15 mg of Compound B in 0.554 mL of dimethyl sulfoxide (DMSO).
[drawing 8] (Evaluation Method) 1) A test compound solution (5 μL) was put into a reaction tube. […] 7) A thiobarbituric acid reaction substance (TBARS) generation value in the reaction completed solution was measured using a commercially available TBARS measuring kit [Cayman, Catalog No. 10009055].
As a non-lipid peroxidation reaction group, a test was conducted by adding distilled water in place of nicotinamide adenine dinucleotide phosphoric acid and ferrous sulfate, and a TBARS generation value was measured. The number of examples of each group is n=2, and the TBARS generation suppressing rate (%) was calculated from an average value of n=2 according to the following formula 1, and IC50 of the test compound was measured by nonlinear regression of statistical analysis software (EXSAS). […]

Row | IC50 [µM] | Compound | antioxidation action
1 | 3.8 | CCC(N)(CC)c1ccc(-c2ccc3[nH]ncc3c2C2CC2)nc1 [Compound A, 1-[6-(4-cyclopropyl-1H-indazol-5-yl)pyridin-3-yl]-1-ethylpropylamine hydrochloride] | exhibited a strong antioxidation action
2 | > 100 | CC(C)(N)c1ccc(-c2ccc3[nH]ncc3c2C2CC2)nc1 [Compound B, 1-[6-(4-cyclopropyl-1H-indazol-5-yl)pyridin-3-yl]-1-methyl ethyl amine hydrochloride] | did not exhibit a strong antioxidation action

— US8816092B2, “Indazole derivative or salt thereof and production intermediate thereof, and antioxidant using same, and use of indazole derivative or salt thereof” (Ube Industries, Ltd., priority 2010, dated 2014)
